Laboratory results reported in patent US4939132A, “Novel 5-alkylsulfonylsalicylanilides and microbiocidal compositions for controlling the growth of microorganisms” (The Research Foundation of State University of New York, priority 1985, dated 1990).
≈ marks a conversion by molar mass, not a printed value. Where two headings read alike, the source gives them in different places.

Tests used:
A. viscosus [1] = experiment: In vitro plaque growth inhibition (bovine enamel slabs), A. viscosus; type: cell-based, Actinomyces viscosus; conditions: for Total Growth ID50 (50% growth inhibition dosage): 2 min contact, about 24 h incubation, aerobic
Method: (§1) Various compositions prepared in accord with the above examples were tested in vitro for plaque inhibition in comparison with prior art compounds. The test used is set forth in detail in Comparison of Antiplaque Agents Using an In Vitro Assay Reflecting Oral Conditions by R. T. Evans et al, Journal of Dental Research, June 1977.
(§2) In summary incisor teeth from bovine mandibles, obtained immediately after slaughter, are cut into 4×8 mm enamel slabs and sterilized in a 0.15M NaCl solution buffered at a pH of 7.5 with 0.02M sodium phosphate (PBS soln). Before use the slabs are coated with sterile saliva and then rinsed twice in sterile PBS. The slabs are then placed in small plastic petri dishes containing various concentrations of the compositions to be tested. The test solution used in accordance is a solution of the test compound in a mixture of 20% by volume of ethanol, 40% by volume of propylene glycol and 40% by volume of a pH 8 aqueous buffer solution containing mono and di sodium phosphates. The slabs are left in the solution of the test compound for two minutes and then rinsed in sterile PBS solution. After rinsing, each slab is placed in a 10×75 mm cotton stoppered glass culture tube containing 1 ml of sucrose-broth culture medium which is then innoculated with a 24 hour culture of the desired microorganism standardized to an optical density (OD)540 of 0.75 for A. viscosus and S. mutans. […] of the inoculation medium is used. A. viscosus is incubated under aerobic conditions and the S. mutans is incubated under anaerobic conditions (5% CO2 and 95% H2). After incubation for about 24 hours the nonadherent organisms are removed and the tube is rinsed twice with 0.5 ml of PBS and the washings combined with the nonadherent organisms.
(§3) The tooth slabs are then transferred to 1 ml of 0.1 N NaOH and 1 ml of 0.1N NaOH is also added to the glass culture tubes. The slabs and tubes are then sonically agitated, if necessary to suspend the adherent organisms. The optical density of each of the three fractions is then measured on a spectophotometer. The tests are repeated with varying concentrations of the compositions being tested until growth inhibition curves can be developed. The 50% growth inhibition dosages (ID50) are then determined with a reliability of +or -80% or better. The compounds tested are samples (a)-(e) as follows: (a) tribromosalan; (b) 5-n-decanoyl-4'-nitrosalicylanilide; (c) 5-n-decylsulfonyl-4'-nitro-salicylanilide; (d) 5-n-decylsulfonyl-4'-trifluoromethyl-salicylanilide; and, (e) 5-n-decylsulfonyl-3'-trifluoromethyl-salicylanilide.

S. mutans [2] = experiment: In vitro plaque growth inhibition (bovine enamel slabs), S. mutans; type: cell-based, Streptococcus mutans; conditions: for Total Growth ID50 (50% growth inhibition dosage): 2 min contact, about 24 h incubation, anaerobic
Method: as §1, §2, §3

S. mutans [3] = experiment: Tube dilution assay (Macro-Broth Dilution Method), S. mutans; type: cell-based; conditions: Streptococcus mutans, read-out: Minimal Inhibitory Concentration
Method: (§4) Various compositions prepared in accord with the above examples were tested in vitro for minimal concentration to inhibit or kill organisms in comparison to prior art compounds. The test used is set forth in detail in Manual of Clinical Microbiology, third edition, pages 456-475 (Macro-BrothDilution Method), 1980, American society for microbiology.
(§5) In the test procedure serial dilutions of the antimicrobic compound are innoculated with the organism to be inhibited and incubated. The minimum inhibitory concentration (MIC) is the lowest concentration of antimicrobic compound that is achieved without visible growth of the organism. The test method comprises preparing a stock solution of antimicrobic compound and diluting it in a Meuller-Hinton broth. A series of sterile 13 by 100 mm, cotton-plugged, test tubes are set out wherein 2 ml of the broth diluted antimicrobic solution (working solution) is added to the first tube and to each remaining tube is added 1.0 ml of non-antimicrobic containing broth. 1.0 ml of working solution from the first tube is transferred to the second tube and thoroughly mixed therewith. Thereafter, 1.0 ml of the mixed solution is transferred to the third tube and mixed with the process continuing through the dilution steps desired. The tubes are then incubated at 35° C. for 16 to 20 hours. […] Various antimicrobic compounds designated (a)-(i) were tested for minimum inhibitory concentration in accord with the above procedure. Compounds (a)-(e) correspond to compounds (a)-(e) of example 9. Compounds (f)-(i) are as follow s: (f) 5-n -octylsulfonyl-4'-nitrosalicylanilide; (g) 5-n-decylsulfony-4'-bromosalicylanilide; (h) 5-n-hexylsulfonyl-4'-bromosalicylanilide; and, (i) 5-n-dodecylsulfonyl-4'-trifluoromethyl salicylanilide.

A. viscosus [4] = experiment: Tube dilution assay (Macro-Broth Dilution Method), A. viscosus; type: cell-based; conditions: Actinomyces viscosus, read-out: Minimal Inhibitory Concentration
Method: as §4, §5

S. aureus = experiment: Tube dilution assay (Macro-Broth Dilution Method), S. aureus; type: cell-based; conditions: Staphylococcus aureus, Mueller-Hinton broth, 35° C., 16 to 20 hours, read-out: Minimal Inhibitory Concentration
Method: as §4, §5

S. pyogenes = experiment: Tube dilution assay (Macro-Broth Dilution Method), S. pyogenes; type: cell-based; conditions: Streptococcus pyogenes, read-out: Minimal Inhibitory Concentration
Method: as §4, §5

S. epidermidis = experiment: Tube dilution assay (Macro-Broth Dilution Method), S. epidermidis; type: cell-based; conditions: Staphylococcus epidermidis, read-out: Minimal Inhibitory Concentration
Method: as §4, §5

[5] = Acute oral toxicity, single dose; type: in vivo; conditions: rat, in vivo; single dose oral route, Sprague-Dawley white rats
Method: (§6) Twelve female white rats averaging 250-300 grams in weight were fasted overnight and divided into three groups of four animals each. In one group each animal received, by gavage tube, 4 ml of an aqueous solution of 1% methylcellulose, the drug delivery vehicle. This group was the control group. The remaining two groups received doses of 750 and 2500 mg/kg respectively of 5-n-decylsulfonyl-4'-trifluoromethyl-salicylanilide in 4-ml aqueous 1% methyl cellulose suspension.
(§7) Within the first week following this single dose only one animal died.
(§8) An autopsy was performed and the cause of death was attributed to a punctured thoracic cavity during administration of the drug.

white rats = experiment: Acute oral toxicity, single dose; type: in vivo; conditions: 2,500 mg/kg dose group, eighth day; attributed to a punctured thoracic cavity during administration
Method: as §6, §7, §8

man = conditions: in man; cited from earlier work
[6] = S. mutans, Mueller-Hinton broth, 35° C., 16 to 20 hours
[7] = A. viscosus, Mueller-Hinton broth, 35° C., 16 to 20 hours
[8] = S. pyogenes, Mueller-Hinton broth, 35° C., 16 to 20 hours
[9] = S. epidermidis, Mueller-Hinton broth, 35° C., 16 to 20 hours

Molecule	Total Growth ID50 (50% growth inhibition dosage) (A. viscosus [1])	Maximum % Inhibition (A. viscosus [1]; at 0.2%) [%]	Total Growth ID50 (50% growth inhibition dosage) (S. mutans [2])	Maximum % Inhibition (S. mutans [2]; at 0.2%) [%]	MIC (S. mutans [3]) [µg/mL]	MIC (A. viscosus [4]) [µg/mL]	MIC (S. aureus) [µg/mL]	MIC (S. pyogenes) [µg/mL]	MIC (S. epidermidis) [µg/mL]	MIC (S. mutans [3]; [6]) [µg/mL]	MIC (A. viscosus [4]; [7]) [µg/mL]	MIC (S. pyogenes; [8]) [µg/mL]	MIC (S. epidermidis; [9]) [µg/mL]	LD50 [5] [mg/kg]	deaths (white rats)	Maximum % Inhibition (A. viscosus [1]; at 0.1%) [%]	Maximum % Inhibition (S. mutans [2]; at 0.1%) [%]	allergic reactions (man)
O=C(Nc1ccc(Br)cc1)c1cc(Br)cc(Br)c1O [(a), tribromosalan, reference compound]	8.8 × 10^-4	53	1.2 × 10^-7	46	1 (≈ 2.22 µM)	0.5 (≈ 1.11 µM)	1 (≈ 2.22 µM)	0.5 (≈ 1.11 µM)	0.5 (≈ 1.11 µM)									
CCCCCCCCCC(=O)c1ccc(O)c(C(=O)Nc2ccc([N+](=O)[O-])cc2)c1 [(b), 5-n-decanoyl-4'-nitrosalicylanilide, reference compound]	1.1 × 10^-4	90	2.3 × 10^-2	59			0.1 (≈ 0.242 µM)			5 (≈ 12.1 µM)	0.05 (≈ 0.121 µM)	0.1 (≈ 0.242 µM)	0.1 (≈ 0.242 µM)					
CCCCCCCCCCS(=O)(=O)c1ccc(O)c(C(=O)Nc2ccc([N+](=O)[O-])cc2)c1 [(c), 5-n-decylsulfonyl-4'-nitro-salicylanilide]	2.3 × 10^-4	93	1.9 × 10^-4	80			0.5 (≈ 1.08 µM)			0.5 (≈ 1.08 µM)	0.5 (≈ 1.08 µM)	0.5 (≈ 1.08 µM)	0.5 (≈ 1.08 µM)					
CCCCCCCCCCS(=O)(=O)c1ccc(O)c(C(=O)Nc2ccc(C(F)(F)F)cc2)c1 [(d), 5-n-decylsulfonyl-4'-trifluoromethyl-salicylanilide]	0.9 × 10^-4	95	1.9 × 10^-3	76			0.5 (≈ 1.03 µM)			0.5 (≈ 1.03 µM)	0.1 (≈ 0.206 µM)	0.5 (≈ 1.03 µM)	0.1 (≈ 0.206 µM)	> 2500	a second animal died			
CCCCCCCCCCS(=O)(=O)c1ccc(O)c(C(=O)Nc2cccc(C(F)(F)F)c2)c1 [(e), 5-n-decylsulfonyl-3'-trifluoromethyl-salicylanilide]	6.8 × 10^-4		2.2 × 10^-3				20 (≈ 41.2 µM)			5 (≈ 10.3 µM)	0.5 (≈ 1.03 µM)	0.5 (≈ 1.03 µM)	0.5 (≈ 1.03 µM)			83	47	
CCCCCCCCS(=O)(=O)c1ccc(O)c(C(=O)Nc2ccc([N+](=O)[O-])cc2)c1 [(f), 5-n-octylsulfonyl-4'-nitrosalicylanilide]							5 (≈ 11.5 µM)			0.5 (≈ 1.15 µM)	1 (≈ 2.3 µM)	5 (≈ 11.5 µM)	5 (≈ 11.5 µM)					
CCCCCCCCCCS(=O)(=O)c1ccc(O)c(C(=O)Nc2ccc(Br)cc2)c1 [(g), 5-n-decylsulfony-4'-bromosalicylanilide]							5 (≈ 10.1 µM)			1 (≈ 2.01 µM)	0.5 (≈ 1.01 µM)	0.5 (≈ 1.01 µM)	0.5 (≈ 1.01 µM)					
CCCCCCS(=O)(=O)c1ccc(O)c(C(=O)Nc2ccc(Br)cc2)c1 [(h), 5-n-hexylsulfonyl-4'-bromosalicylanilide]							5 (≈ 11.4 µM)				5 (≈ 11.4 µM)	5 (≈ 11.4 µM)	10 (≈ 22.7 µM)					
CCCCCCCCCCCCS(=O)(=O)c1ccc(O)c(C(=O)Nc2ccc(C(F)(F)F)cc2)c1 [(i), 5-n-dodecylsulfonyl-4'-trifluoromethyl salicylanilide]							0.5 (≈ 0.973 µM)				0.05 (≈ 0.0973 µM)	0.5 (≈ 0.973 µM)	0.1 (≈ 0.195 µM)					
tetrachlorosalicylanilide																		has been shown to produce allergic reactions in man
